In patent publication US20140158116A1, “INHIBITING TRPA1 FOR THE TREATMENT OF ASTHMA” (Cubist Pharmaceuticals, Inc., priority 2012, published 2014):
Like-named read-outs stand apart in the source and are kept apart here.

Tests used:
[1] = tested on: formalin-induced pain behavior; experiment: Formalin-induced pain behavior in vivo rodent model; parameters: species or system rat; conditions: for # of Flinches: Table 3c, vehicle 120
Excerpt: The data shown in Tables 3a, 3b, and 3c and FIG. 2 were obtained by administering a pharmaceutical composition comprising the compound of Formula (Ia) to rodents in the formalin-induced pain duration at various doses according to Example 5. Specifically, the data in Tables 3a, 3b, and 3c and FIG. 2 were obtained by intraperitoneal (i.p.) administration of compositions containing different concentrations of the compound of Formula (Ia), a comparator composition containing recited amounts of the comparator compound (e.g., 150 mg/kg of the comparator compound of Formula (II) in Table 3a) and a control composition containing the vehicle (e.g., without the compound of Formula (Ia) or a comparator compound).
The compound of Formula (Ia) and the comparator compounds of Formula (II) and Formula (III) were tested in the formalin-induced pain test reported by Dubuisson et al., Pain 1977 December; 4(2):161-74 (incorporated herein by reference in its entirety). Dubuisson et al. (1977) describe a method for assessing pain and analgesia in rats and cats. Briefly, dilute formalin (50 μL of 3% formalin) is injected into the plantar surface of the hind paw. […] The individual responsible for counting the pain behaviors in a particular study is blinded to the treatment groups.
Rats were treated with the HCl salt of Compound (Ia) at various doses (3, 10, 30, and 50 mg/kg, IP) or with the vehicle (IP).

[2] = tested on: CFA-induced cold allodynia; experiment: Complete Freund's Adjuvant (CFA) cold allodynia rodent pain model; assay type: in vivo; conditions: 150 mg/kg; vehicle 19.8
Protocol: The compound of Formula (Ia) is also active in rodent models of pain in vivo induced by cold allodynia following chronic Complete Freund's Adjuvant-induced inflammation, as described in Example 6. […] The compound of Formula (Ia), the comparator compound of Formula (II) and ketoprofen were tested by the CFA-induced pain test method reported in del Camino et al., J. Neurosci., 30(45):15165-15174, incorporated herein by reference in its entirety. Briefly, the hind paw was sensitized to cold temperature (allodynic), by administering 0.1 mL of Complete Freund's Adjuvant (CFA) to the left hind paw. 2-3 days later, the time taken for the animal to lift its CFA-injected paw was recorded compared to its un-injected normal right hind paw. […] To avoid tissue damage the maximum cut-off time was 5 minutes. Animals that were allodynic (average PWL to the first three pain behaviors <150 seconds for the CFA-injected hind paw: ˜≧50% difference between the normal and CFA-injected paw) were included in the study and subsequently randomized across treatment groups. The following day, the animals were dosed under blinded conditions. Following the 1-2 hour pre-treatment time, the post-dose PWL readings were again taken. The efficacy of the drug treatment was assessed by comparing the PWL in the drug treatment animals to those animals that received the vehicle.

[3] = target: T1, hTRPA1 (Homo sapiens, UniProt O75762); experiment: Whole-cell patch clamp block of inward current through hTRPA1; assay type: cell-based
Protocol: (§1) Data for TRPA1 inhibition and the selectivity of TRPA1 inhibition was obtained by this method for the compound of Formula (Ia) and included in Table 1 and Table 2. All currents were recorded in whole-cell configuration using EPC-9 and EPC-10 amplifiers and Patchmaster software (HEKA). […] The standard pipette solution consisted of 140 mM CsAsp, 10 mM EGTA, 10 mM HEPES, 2.27 mM MgCl2, 1.91 mM CaCl2, 4 mM MgATP, and 0.1-0.3 mM Na2GTP, with pH adjusted to 7.2 with CsOH. In addition, a solution containing 145 mM CsCl, 10 mM HEPES, 10 mM EGTA and 1 mM MgCl2 (pH 7.2 adjusted with CsOH) can be used. The standard bath solution contained 150 mM NaCl, 10 mM HEPES, 10 mM glucose, 4.5 mM KCl, 1 mM EGTA, 3 mM MgCl2, with pH adjusted to 7.4 with NaOH. In some instances, 2 mM CaCl2 was added in place of EGTA and the concentration of MgCl2 was reduced to 1 mM.
(§2) Data were collected either by continuous recordings at −60 mV or by applying voltage ramps from a holding potential of 0 mV every 4 s. Continuous recordings were collected at 400 Hz and digitally filtered off-line at 10 Hz for presentation. Voltage ramps were applied from −100 mV to 100 mV over the course of 400 ms, and data were collected at 10 kHz and filtered at 2.9 kHz. Inward and outward currents were analyzed from the ramps at −80 and 80 mV, respectively. Liquid junction potential correction was not used.
(§3) Solutions were switched using a gravity-fed continuous focal perfusion system. To achieve rapid temperature changes, two temperature control and perfusion systems were employed simultaneously. For temperatures ≧22° C., a Warner Instruments bipolar temperature controller (TC-344B) and inline heater (SHM-8) were used. […] Temperatures were confirmed using a thermistor (Warner Instruments, TA-29), with temperatures at the recorded cell estimated to be within +/−2° C. of those reported.
IC50 of compounds was estimated by testing each compound at 5 micromolar and 500 nanomolar. […] IC50 for compounds between 500 nanomolar and 5 micromolar was similarly estimated. Compounds blocking 50% or more at 500 nanomolar are retested at multiple concentrations, and the % block at each is fitted by standard equations to determine IC50 accurately using a 5-6 point concentration/response experiment.

[4] = target: T1, hTRPA1; experiment: hTrpA1 IC50 measured in 1% RSA (rat serum albumin); assay type: cell-based
[5] = target: rTRPA1 (Rattus norvegicus, UniProt Q6RI86); experiment: Whole-cell patch clamp block of inward current through rTRPA1; assay type: cell-based; conditions: class symbol; read-out: Potency (IC50) Rat
Protocol: as §1, §2, §3
(§4) IC50 of compounds was estimated by testing each compound at 5 micromolar and 500 nanomolar. […] IC50 for compounds between 500 nanomolar and 5 micromolar was similarly estimated. […]

[6] = target: dTRPA1 (Canis lupus familiaris, UniProt A0A8I3Q1Q7); experiment: Whole-cell patch clamp block of inward current through dTRPA1; assay type: cell-based, Dog; conditions: class symbol; read-out: Potency (IC50) Dog
Protocol: as §1, §2, §3, §4

[7] = Oral bioavailability pharmacokinetic study; assay type: in vivo; conditions: rat, plasma, PO versus IV
Protocol: The potency and pharmacokinetic (PK) properties of (a) the compound of Formula (Ia); and (b) comparator compound of Formula (III) were evaluated. Bioavailability was measured as well. A pharmacokinetic study was performed to obtain a plasma drug concentration vs time plot for the drug after both intravenous (IV) and oral (PO) administration. The absolute bioavailability is the dose-corrected area under curve (AUC) non-intravenous divided by AUC intravenous. The formula for calculating F for a drug administered by the oral route (PO) is given below.
The bioavailability was calculated using the equation shown below:
% F=AUC PO×Dose IV/AUC IV×Dose PO

[8] = Human plasma protein binding by equilibrium dialysis; assay type: in vitro ADME; conditions: percentage bound
Protocol: The amount of compound in buffer (free fraction) and the amount of compound associated with the plasma fraction is determined by equilibrium dialysis; the amount of compound bound is expressed as a percentage. (Banker et al., Journal of Pharmaceutical Sciences (2003) 92(5): 967-74.)

[9] = tested on: serum biomarkers of hepatotoxicity (ALT, AST, ALP, GGT); experiment: Hepatotoxicity serum biomarker study in dogs, oral dose; assay type: in vivo, dog; conditions: for ALT level elevation: single PO dose of 50 mg/kg
Protocol: The compound of Formula (Ia) was orally dosed to […] at dose levels of 5, 15 or 50 mg/kg using 30% Sulfobutylether β-cyclodextrin as the vehicle for assessment of safety as measured via serum chemistry biomarkers of hepatotoxicity or bile duct injury FIG. 5A, showing measurements of alanine aminotranferease [ALT], aspartate aminotranferease [AST], alkaline phosphatase [ALP] and gamma-glutamyl transferase [GGT] in the dogs at each dose level (each bar represents a measurement from 1 dog in the study). […] For example, the ALT levels were elevated up to about 60-fold in male dogs and up to about 130-fold in female beagle dogs following a single PO dose of 50 mg/kg.

[10] = 7-day repeat dose i.p. screening toxicity study in rats; assay type: in vivo, rat; conditions: rats; 50 mg/kg/day i.p. for 7 consecutive days
Protocol: The compound of Formula (Ia) was evaluated in a 7-day repeat dose screening toxicity study in female rats. In order to maximize systemic exposure, rats were administered compound of Formula (Ia) i.p. at 50 mg/kg/day for 7 consecutive days, to obtain the results shown in FIG. 6. Clinical chemistry parameters were evaluated on Days 3 and 8. Histopathology was performed on select organs including the liver, kidney, spleen, and lung.

[11] = hTRPA1, Human, current activation 10 micromolar AITC, whole cell patch, read-out: IC50 Inward current

T1 sequence (O75762 whole entry): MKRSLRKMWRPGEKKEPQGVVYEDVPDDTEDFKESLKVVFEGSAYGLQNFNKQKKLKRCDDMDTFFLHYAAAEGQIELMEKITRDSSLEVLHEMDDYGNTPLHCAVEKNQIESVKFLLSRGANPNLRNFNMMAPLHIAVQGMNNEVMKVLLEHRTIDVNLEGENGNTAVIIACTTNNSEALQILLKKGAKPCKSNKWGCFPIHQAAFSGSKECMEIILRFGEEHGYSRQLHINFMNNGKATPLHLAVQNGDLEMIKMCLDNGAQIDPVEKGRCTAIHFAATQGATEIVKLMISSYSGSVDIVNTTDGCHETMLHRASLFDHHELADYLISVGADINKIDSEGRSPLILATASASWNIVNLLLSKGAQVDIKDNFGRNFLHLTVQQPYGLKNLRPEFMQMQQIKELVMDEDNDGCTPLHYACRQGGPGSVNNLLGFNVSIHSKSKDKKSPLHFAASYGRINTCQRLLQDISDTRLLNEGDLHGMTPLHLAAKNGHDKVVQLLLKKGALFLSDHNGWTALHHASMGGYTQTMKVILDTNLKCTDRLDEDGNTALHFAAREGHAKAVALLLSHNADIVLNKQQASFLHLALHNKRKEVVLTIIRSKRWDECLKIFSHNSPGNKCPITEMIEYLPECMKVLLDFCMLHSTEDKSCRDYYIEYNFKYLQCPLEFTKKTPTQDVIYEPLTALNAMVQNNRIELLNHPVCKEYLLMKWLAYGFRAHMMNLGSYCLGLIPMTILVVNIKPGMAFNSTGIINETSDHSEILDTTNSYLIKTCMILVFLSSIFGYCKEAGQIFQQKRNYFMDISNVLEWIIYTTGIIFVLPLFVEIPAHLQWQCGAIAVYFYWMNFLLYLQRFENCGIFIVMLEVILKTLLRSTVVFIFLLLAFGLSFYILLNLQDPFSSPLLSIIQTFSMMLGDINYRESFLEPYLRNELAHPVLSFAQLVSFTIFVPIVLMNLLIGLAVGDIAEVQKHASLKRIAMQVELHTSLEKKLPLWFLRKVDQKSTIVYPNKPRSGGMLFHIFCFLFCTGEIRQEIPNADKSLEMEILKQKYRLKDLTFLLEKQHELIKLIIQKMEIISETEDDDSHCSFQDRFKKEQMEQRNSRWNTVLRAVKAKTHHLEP
rTRPA1, sequence (Q6RI86 whole entry): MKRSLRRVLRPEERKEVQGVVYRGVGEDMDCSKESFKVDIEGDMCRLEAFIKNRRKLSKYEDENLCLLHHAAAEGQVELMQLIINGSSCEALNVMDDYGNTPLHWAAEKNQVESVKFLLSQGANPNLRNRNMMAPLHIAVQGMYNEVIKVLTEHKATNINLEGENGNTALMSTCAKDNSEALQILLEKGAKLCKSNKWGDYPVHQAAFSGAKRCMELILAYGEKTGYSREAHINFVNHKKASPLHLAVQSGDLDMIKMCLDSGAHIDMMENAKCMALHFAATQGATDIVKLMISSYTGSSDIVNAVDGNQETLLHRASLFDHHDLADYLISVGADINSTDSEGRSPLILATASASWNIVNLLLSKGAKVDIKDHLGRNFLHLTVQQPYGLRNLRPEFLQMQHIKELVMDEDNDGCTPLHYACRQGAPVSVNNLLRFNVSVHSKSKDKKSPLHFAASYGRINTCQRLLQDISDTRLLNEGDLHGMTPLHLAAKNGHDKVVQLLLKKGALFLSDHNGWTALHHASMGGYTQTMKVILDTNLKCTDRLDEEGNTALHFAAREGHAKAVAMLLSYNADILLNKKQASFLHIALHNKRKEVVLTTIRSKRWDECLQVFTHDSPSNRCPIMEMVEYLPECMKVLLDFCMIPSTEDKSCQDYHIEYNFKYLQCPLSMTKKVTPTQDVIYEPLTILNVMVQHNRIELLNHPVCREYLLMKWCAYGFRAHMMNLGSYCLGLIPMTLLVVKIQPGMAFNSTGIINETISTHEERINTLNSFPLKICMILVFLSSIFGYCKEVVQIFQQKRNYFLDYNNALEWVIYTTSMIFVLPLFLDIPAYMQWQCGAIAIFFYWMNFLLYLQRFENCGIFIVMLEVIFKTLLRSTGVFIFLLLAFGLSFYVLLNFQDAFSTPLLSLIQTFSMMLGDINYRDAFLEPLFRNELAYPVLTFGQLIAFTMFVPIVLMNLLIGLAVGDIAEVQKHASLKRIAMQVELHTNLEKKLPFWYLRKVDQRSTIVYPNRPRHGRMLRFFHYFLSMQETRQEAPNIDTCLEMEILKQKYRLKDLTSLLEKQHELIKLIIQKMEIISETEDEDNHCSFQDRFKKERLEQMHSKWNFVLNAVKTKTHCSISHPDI
dTRPA1, sequence (A0A8I3Q1Q7 1-1118): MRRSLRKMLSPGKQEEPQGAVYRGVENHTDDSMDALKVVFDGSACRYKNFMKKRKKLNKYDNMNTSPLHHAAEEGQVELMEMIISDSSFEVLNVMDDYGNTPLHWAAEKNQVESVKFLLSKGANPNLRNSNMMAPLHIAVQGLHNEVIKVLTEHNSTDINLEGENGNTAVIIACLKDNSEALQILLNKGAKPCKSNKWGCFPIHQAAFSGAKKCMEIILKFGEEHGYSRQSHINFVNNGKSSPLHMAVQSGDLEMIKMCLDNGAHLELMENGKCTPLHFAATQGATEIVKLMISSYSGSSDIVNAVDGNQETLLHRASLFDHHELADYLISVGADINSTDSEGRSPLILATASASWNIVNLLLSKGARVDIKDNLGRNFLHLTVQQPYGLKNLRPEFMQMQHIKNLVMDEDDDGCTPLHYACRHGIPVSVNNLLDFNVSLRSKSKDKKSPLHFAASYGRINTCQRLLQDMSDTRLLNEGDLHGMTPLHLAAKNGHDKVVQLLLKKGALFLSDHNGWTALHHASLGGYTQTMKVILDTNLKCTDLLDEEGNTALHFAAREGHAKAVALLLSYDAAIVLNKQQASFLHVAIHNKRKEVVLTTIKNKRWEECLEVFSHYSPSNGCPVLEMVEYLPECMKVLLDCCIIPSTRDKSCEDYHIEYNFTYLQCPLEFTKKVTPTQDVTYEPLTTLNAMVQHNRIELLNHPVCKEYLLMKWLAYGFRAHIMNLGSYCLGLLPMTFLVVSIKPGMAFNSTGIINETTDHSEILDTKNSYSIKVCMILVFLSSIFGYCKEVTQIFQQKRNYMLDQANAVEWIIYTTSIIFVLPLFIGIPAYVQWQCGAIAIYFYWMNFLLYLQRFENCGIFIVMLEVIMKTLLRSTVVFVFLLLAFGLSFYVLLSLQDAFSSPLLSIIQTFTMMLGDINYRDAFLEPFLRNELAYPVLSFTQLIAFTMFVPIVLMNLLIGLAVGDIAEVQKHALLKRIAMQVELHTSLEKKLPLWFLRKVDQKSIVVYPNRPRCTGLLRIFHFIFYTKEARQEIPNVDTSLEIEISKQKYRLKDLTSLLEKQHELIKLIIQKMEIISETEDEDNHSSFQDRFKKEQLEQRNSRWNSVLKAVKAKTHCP

CC(C)c1ccc(NC(=O)Cn2cnc3c2c(=O)n(C)c(=O)n3C)cc1 [Formula (II)]
# of Flinches ([1]; 30 mg/kg): 88 | # of Flinches ([1]; 100 mg/kg): 62 | Duration of Pain Behavior ([1]; 150 mg/kg, Table 3a, vehicle 88.6): 40.0 s | # of Flinches ([1]; 300 mg/kg): 43 | Change in Paw Withdrawal Latency [2]: 142.2

C[C@@H]1CCCN1c1ncc(-c2cccc(NC(=O)Cn3cnc4c3c(=O)n(C)c(=O)n4C)n2)cn1 [Formula (Ib)]
IC50 [3, 11]: 77 nM | IC50 [4]: 15200 nM

C[C@H]1CCCN1c1ccc(-c2csc(NC(=O)Cn3cnc4c3c(=O)n(C)c(=O)n4C)n2)cc1F [Formula (III), reference compound]
IC50 [3, 11]: < 25 nM | IC50 ([3]; hTRPA1, class symbol, read-out: Potency (IC50) Human): < 25 nM | IC50 [5]: 50 to 100 nM | IC50 [6]: < 25 nM | Duration of Pain Behavior ([1]; 50 mg/kg, Table 3b, vehicle 77.2): 44.3 s | bioavailability ([7]; oral, fed rats, read-out: Bioavailability (Rat) Fed): 1 to 25% | bioavailability ([7]; po, fasted rats, read-out: Bioavailability (Rat) Fasted): 25 to 50% | bioavailability ([7]; po, fed rats, read-out: Bioavailability (Rat) Fed): 1 to 25% | fraction unbound [8]: < 0.01 | effect on serum biomarkers of hepatotoxicity ([9]; dogs, 50 mg/kg PO): did elevate serum biomarkers of hepatotoxicity | ALT level elevation ([9]; female beagle dogs): up to 130 fold | ALT level elevation ([9]; male dogs): up to 60 fold | effect on serum biomarkers of hepatotoxicity [10]: did elevate serum biomarkers of hepatotoxicity as compared to Formula (Ia)

NCC1(CC(=O)O)CCCCC1 [Gabapentin]
# of Flinches ([1]; reference, dose not given): 75
